Reference: patent publication US20220370416A1, “COMPOUNDS AND METHODS FOR TARGETED DEGRADATION OF KRAS” (Arvinas Operations, Inc., priority 2020, published 2022)

Experiments:
HiBit-KRAS^G12C [1] = molecular target: T1, HiBit-KRAS^G12C (Homo sapiens, UniProt P01116, G12C); assay: HiBit degradation assay in MiaPaCa-2 HiBit-KRas^G12C cells; format: cell-based; conditions: 24 hours
Method in brief: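 MiaPaCa-2 cells with CRISPR N-terminal HiBit knock-in on one endogenous KRAS^G12C allele, treated 24 hours at 37° C with compound titrated 10 μM to 20 nM (0.1% or 0.5% DMSO). Lytic HiBit luminescence normalized to DMSO, 4-parameter fit giving DC50 and Dmax; points cytotoxic to […] cells by alamar blue excluded.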

HiBit-KRAS^G12C [2] = molecular target: T1, HiBit-KRAS^G12C; assay: HiBit degradation assay in SW1573 HiBit-KRas^G12C cells; format: cell-based; parameters: expressed in transfected cells; host or cells: SW1573 (clone E6), modified pcDNA3.1 vector, TK promoter; conditions: 24 hours
Method in brief: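 SW1573 cells stably expressing N-terminally HiBit-tagged KRAS G12C, under the TK promoter, were treated 24 h at 37 °C with 10 μM to 20 nM compound in 0.1% or 0.5% DMSO. Residual HiBit luminescence normalised to DMSO and fitted with a 4-parameter model for DC50 and Dmax. Points with ≥50% viability loss (alamar blue) excluded.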

[3] = SW1573 HiBit-KRas^G12C, 0.1% DMSO, read-out: KRas^G12C-HIBit (SW1573; 0.1% DMSO) DC50*
[4] = MIA PaCa-2, MiaPaCa-2 HiBit-KRas^G12C cells, 0.5% DMSO, maximum degradation, read-out: KRas^G12C-HiBiT (MiaPaCa; 0.5% DMSO) DMax
[5] = read-out: KRas^G12C-HiBiT (MiaPaCa; 0.5% DMSO) IC50, MiaPaCa-2 HiBit-KRas^G12C cells, 0.5% DMSO
[6] = SW1573, SW1573 HiBit-KRas^G12C, 0.5% DMSO, read-out: KRas^G12C-HiBiT (SW1573; 0.5% DMSO) Dmax**
[7] = read-out: KRas^G12C-HiBiT (SW1573; 0.5% DMSO) IC50***, SW1573 HiBit-KRas^G12C, 0.5% DMSO
[8] = MIA PaCa-2, read-out: KRas^G12C-HiBiT (MiaPaCa; 0.1% DMSO) DMax, MiaPaCa-2 HiBit-KRas^G12C cells, 0.1% DMSO, maximum degradation

T1 sequence (P01116 1-186 isoform P01116-2 G12C limits assumed): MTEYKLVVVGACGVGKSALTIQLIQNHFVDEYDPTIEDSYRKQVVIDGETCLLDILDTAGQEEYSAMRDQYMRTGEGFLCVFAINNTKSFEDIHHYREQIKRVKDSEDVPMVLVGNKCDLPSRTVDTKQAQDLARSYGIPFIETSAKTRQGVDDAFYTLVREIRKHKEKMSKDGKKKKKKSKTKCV

Structure (SMILES) | DC50 (HiBit-KRAS^G12C [2]; [3]) | Dmax (HiBit-KRAS^G12C [1]; [4]) | DC50 (HiBit-KRAS^G12C [1]; [5]) | Dmax (HiBit-KRAS^G12C [2]; [6]) | DC50 (HiBit-KRAS^G12C [2]; [7]) | also measured
C=CC(=O)N1CCN(c2nc(OCCN3CCC(COCC(=O)N[C@H](C(=O)N4C[C@H](O)C[C@H]4C(=O)N[C@@H](C)c4ccc(-c5scnc5C)cc4)C(C)(C)C)CC3)nc3c(F)c(-c4cc(O)cc5ccccc45)c(Cl)cc23)CC1 (atropisomer, axis not shown) [Compound 9, (2S,4R)-1-[(2S)-2-(2-{[1-(2-{[6-chloro-8-fluoro-7-(3-hydroxynaphthalen-1-yl)-4-[4-(prop-2-enoyl)piperazin-1-yl]quinazolin-2-yl]oxy}ethyl)piperidin-4-yl]methoxy}acetamido)-3,3-dimethylbutanoyl]-4-hydroxy-N-[(1S)-1-[4-(4-methyl-1,3-thiazol-5-yl)phenyl]ethyl]pyrrolidine-2-carboxamide] | 100 to 1000 nM | – | – | – | – | KRas^G12C-HiBiT (MiaPaCa; 0.1% DMSO) DMax (HiBit-KRAS^G12C [1]; MiaPaCa-2 HiBit-KRas^G12C cells, 0.1% DMSO, maximum degradation): A (A ≥ 70); KRas^G12C-HiBiT (MiaPaCa; 0.5% DMSO) DMax (HiBit-KRAS^G12C [1]; MiaPaCa-2 HiBit-KRas^G12C cells, 0.5% DMSO, maximum degradation): A (A ≥ 70); KRas^G12C-HiBit (SW1573; 0.1% DMSO) Dmax** (HiBit-KRAS^G12C [2]; SW1573 HiBit-KRas^G12C, 0.1% DMSO): A (A ≥ 70)
C=C(F)C(=O)N1CCN(c2nc(OCCN3CCC(COc4cc([C@H](C(=O)N5C[C@H](O)C[C@H]5C(=O)N[C@@H](C)c5ccc(-c6ccnn6C)cc5)C(C)C)on4)CC3)nc3c(F)c(-c4cc(O)cc5ccccc45)c(Cl)cc23)C[C@@H]1CC#N (atropisomer, axis not shown) [Compound 141, (2S,4R)-1-[(2R)-2-[3-({1-[2-({6-chloro-4-[(3S)-3-(cyanomethyl)-4-(2-fluoroprop-2-enoyl)piperazin-1-yl]-8-fluoro-7-(3-hydroxynaphthalen-1-yl)quinazolin-2-yl}oxy)ethyl]-piperidin-4-yl}methoxy)-1,2-oxazol-5-yl]-3-methylbutanoyl]-4-hydroxy-N-[(1S)-1-[4-(1-methyl-1H-pyrazol-5-yl)phenyl]ethyl]pyrrolidine-2-carboxamide] | – | > 70% | 100 to 1000 nM | > 70% | < 100 nM | –
C=CC(=O)N1CCN(c2nc(OCCN3CCC(CN(C)c4cc([C@H](C(=O)N5C[C@H](O)C[C@H]5C(=O)N[C@@H](C)c5ccc(-c6scnc6C)cc5)C(C)C)on4)CC3)nc3c(F)c(-c4cc(O)cc5ccccc45)c(Cl)cc23)C[C@@H]1CC#N [Compound 143, (2S,4R)-1-[(2R)-2-{3-[({1-[2-({6-chloro-4-[(3S)-3-(cyanomethyl)-4-(prop-2-enoyl)piperazin-1-yl]-8-fluoro-7-(3-hydroxynaphthalen-1-yl)quinazolin-2-yl}oxy)ethyl]piperidin-4-yl}methyl)(methyl)amino]-1,2-oxazol-5-yl}-3-methylbutanoyl]-4-hydroxy-N-[(1S)-1-[4-(4-methyl-1,3-thiazol-5-yl)phenyl]ethyl]pyrrolidine-2-carboxamide] | – | > 70% | 100 to 1000 nM | > 70% | 100 to 1000 nM | –
Cc1ncsc1-c1ccc([C@H](C)NC(=O)[C@@H]2C[C@@H](O)CN2C(=O)[C@@H](NC(=O)COCC2CCN(CCOc3nc(N4CCN(C(=O)/C=C/CN5CCOCC5)[C@@H](CC#N)C4)c4cc(Cl)c(-c5cc(O)cc6ccccc56)c(F)c4n3)CC2)C(C)(C)C)cc1 [Compound 164, (2S,4R)-1-[(2S)-2-[2-({1-[2-({6-chloro-4-[(3S)-3-(cyanomethyl)-4-[(2E)-4-(morpholin-4-yl)but-2-enoyl]piperazin-1-yl]-8-fluoro-7-(3-hydroxynaphthalen-1-yl)quinazolin-2-yl}oxy)ethyl]piperidin-4-yl}methoxy)acetamido]-3,3-dimethylbutanoyl]-4-hydroxy-N-[(1S)-1-[4-(4-methyl-1,3-thiazol-5-yl)phenyl]ethyl]pyrrolidine-2-carboxamide] | – | 35 to 70% | > 1000 nM | 35 to 70% | 100 to 1000 nM | –
C=CC(=O)N1CCN(c2nc(O[C@H](C)CN3CCN(C4CN(CC(=O)N[C@H](C(=O)N5C[C@H](O)C[C@H]5C(=O)N[C@@H](C)c5ccc(-c6scnc6C)cc5)C(C)(C)C)C4)CC3)nc3c(F)c(-c4cc(O)cc5ccccc45)c(Cl)cc23)CC1 [Compound 40, (2S,4R)-1-[(2S)-2-[2-(3-{4-[(2R)-2-{[6-chloro-8-fluoro-7-(3-hydroxynaphthalen-1-yl)-4-[4-(prop-2-enoyl)piperazin-1-yl]quinazolin-2-yl]oxy}propyl]piperazin-1-yl}azetidin-1-yl)acetamido]-3,3-dimethylbutanoyl]-4-hydroxy-N-[(1S)-1-[4-(4-methyl-1,3-thiazol-5-yl)phenyl]ethyl]pyrrolidine-2-carboxamide] | > 1000 nM | – | – | – | – | Dmax (HiBit-KRAS^G12C [1]; [8]): < 35%; Dmax (HiBit-KRAS^G12C [1]; MIA PaCa-2, read-out: KRas^G12C-HiBiT (MiaPaCa; 0.5% DMSO) DMax, MiaPaCa-2 HiBit-KRas^G12C cells, 0.5% DMSO, maximum degradation): < 35%; DC50 (HiBit-KRAS^G12C [1]; read-out: KRas^G12C-HiBiT (MiaPaCa; 0.1% DMSO) IC50, MiaPaCa-2 HiBit-KRas^G12C cells, 0.1% DMSO): 100 to 1000 nM; Dmax (HiBit-KRAS^G12C [2]; SW1573, read-out: KRas^G12C-HiBiT (SW1573; 0.5% DMSO) Dmax**, SW1573 HiBit-KRas^G12C, 0.5% DMSO): 35 to 70%; Dmax (HiBit-KRAS^G12C [2]; SW1573, read-out: KRas^G12C-HiBit (SW1573; 0.1% DMSO) Dmax**, SW1573 HiBit-KRas^G12C, 0.1% DMSO): 35 to 70%
C=CC(=O)N1CCN(c2nc(OCCN3CCC(COc4cc([C@@H](C(=O)N5C[C@@H](O)C[C@H]5C(=O)N[C@@H](C)c5ccc(-c6scnc6C)cc5)C(C)C)on4)CC3)nc3c(F)c(-c4cc(O)cc5ccccc45)c(Cl)cc23)C[C@@H]1CC#N (atropisomer, axis not shown) [Compound 105, (2S,4S)-1-[(2S)-2-[3-({1-[2-({6-chloro-4-[(3S)-3-(cyanomethyl)-4-(prop-2-enoyl)piperazin-1-yl]-8-fluoro-7-(3-hydroxynaphthalen-1-yl)quinazolin-2-yl}oxy)ethyl]piperidin-4-yl}methoxy)-1,2-oxazol-5-yl]-3-methylbutanoyl]-4-hydroxy-N-[(1S)-1-[4-(4-methyl-1,3-thiazol-5-yl)phenyl]ethyl]pyrrolidine-2-carboxamide] | – | < 35% | < 100 nM | – | > 1000 nM | –
C=C(F)C(=O)N1CCN(c2nc(OCCN3CCC4(CC3)CN(c3cc([C@H](C(=O)N5C[C@H](O)C[C@H]5C(=O)N[C@@H](C)c5ccc(-c6scnc6C)cc5)C(C)C)on3)C4)nc3c(F)c(-c4cc(O)cc5ccccc45)c(Cl)cc23)C[C@@H]1CC#N (atropisomer, axis not shown) [Compound 109, (2S,4R)-1-[(2R)-2-(3-{7-[2-({6-chloro-4-[(3S)-3-(cyanomethyl)-4-(2-fluoroprop-2-enoyl)piperazin-1-yl]-8-fluoro-7-(3-hydroxynaphthalen-1-yl)quinazolin-2-yl}oxy)ethyl]-2,7-diazaspiro[3.5]nonan-2-yl}-1,2-oxazol-5-yl)-3-methylbutanoyl]-4-hydroxy-N-[(1S)-1-[4-(4-methyl-1,3-thiazol-5-yl)phenyl]ethyl]pyrrolidine-2-carboxamide] | – | > 70% | < 100 nM | 35 to 70% | < 100 nM | –
C=CC(=O)N1CCN(c2nc(OC[C@@H]3CCN(CCCOCC(=O)N[C@H](C(=O)N4C[C@H](O)C[C@H]4C(=O)N[C@@H](C)c4ccc(-c5scnc5C)cc4)C(C)(C)C)C3)nc3c(F)c(-c4cc(O)cc5ccccc45)c(Cl)cc23)C[C@@H]1CC#N [Compound 95, (2S,4R)-1-[(2S)-2-(2-{3-[(3R)-3-[({6-chloro-4-[(3S)-3-(cyanomethyl)-4-(prop-2-enoyl)piperazin-1-yl]-8-fluoro-7-(3-hydroxynaphthalen-1-yl)quinazolin-2-yl}oxy)methyl]pyrrolidin-1-yl]propoxy}acetamido)-3,3-dimethylbutanoyl]-4-hydroxy-N-[(1S)-1-[4-(4-methyl-1,3-thiazol-5-yl)phenyl]ethyl]pyrrolidine-2-carboxamide] | – | > 70% | > 1000 nM | > 70% | 100 to 1000 nM | –
C=CC(=O)N1CCN(c2nc(OCCN3CCC(COCC(=O)N[C@H](C(=O)N4C[C@@H](O)C[C@H]4C(=O)N[C@@H](C)c4ccc(-c5scnc5C)cc4)C(C)(C)C)CC3)nc3c(F)c(-c4cc(O)cc5ccccc45)c(Cl)cc23)C[C@@H]1CC#N [Compound 6, (2S,4S)-1-[(2S)-2-[2-({1-[2-({6-chloro-4-[(3S)-3-(cyanomethyl)-4-(prop-2-enoyl)piperazin-1-yl]-8-fluoro-7-(3-hydroxynaphthalen-1-yl)quinazolin-2-yl}oxy)ethyl]piperidin-4-yl}methoxy)acetamido]-3,3-dimethylbutanoyl]-4-hydroxy-N-[(1S)-1-[4-(4-methyl-1,3-thiazol-5-yl)phenyl]ethyl]pyrrolidine-2-carboxamide] | > 1000 nM | – | – | – | – | Dmax (HiBit-KRAS^G12C [1]; [8]): 35 to 70%
